# Experiments:
# Assay type in all cases: in vivo
# [1] = tested on: barnyardgrass (Echinochloa crus-galli); test: Test A preemergence, directed soil spray, visual injury rating; conditions: 0 is no effect, 100 is complete control
# Procedure, shortened: (§1)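 Injury ratings, 0 (no effect) to 100 (complete control), were scored visually versus untreated plants roughly 10 d after treatment under greenhouse conditions. Treatments used surfactant-containing solvent formulations, sprayed onto soil preemergence or onto one- to two-leaf seedlings (2-10 cm) postemergence, grown in a loam-sand mix.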
# [2] = tested on: foxtail, giant (giant foxtail, Setaria faberii); test: as above; conditions: 0 is no effect, 100 is complete control
# Procedure, shortened: as §1
# [3] = tested on: kochia (Kochia scoparia); test: as above; conditions: 0 is no effect, 100 is complete control
# Procedure, shortened: as §1
# [4] = tested on: pigweed (Amaranthus retroflexus); test: as above; conditions: 0 is no effect, 100 is complete control
# Procedure, shortened: as §1
# [5] = tested on: ragweed (common ragweed, Ambrosia elatior); test: as above; conditions: 0 is no effect, 100 is complete control
# Procedure, shortened: as §1
# [6] = tested on: ryegrass, It. (Italian ryegrass, Lolium multiflorum); test: as above; conditions: 0 is no effect, 100 is complete control
# Procedure, shortened: as §1
# [7] = tested on: barnyardgrass (Echinochloa crus-galli); test: Test B flooded paddy test, visual rating; conditions: Flood, 250 g ai/ha, applied to paddy water, rated after 13 to 15 d
# Procedure, shortened: (§2)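 Ratings use a 0-100 visual scale, where 100 is complete control, and compare treated plants with controls after 13 to 15 d of greenhouse growth. Compound went straight into paddy water kept 3 cm over the soil surface, applied to seedlings at the 2-leaf stage.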
# [8] = tested on: ducksalad (Heteranthera limosa); test: Test B flooded paddy test, visual rating; conditions: Flood, 250 g ai/ha, applied to paddy water, rated after 13 to 15 d
# Procedure, shortened: as §2
# [9] = tested on: rice (Oryza sativa); test: Test B flooded paddy test, visual rating; conditions: Flood, 250 g ai/ha, applied to paddy water, rated after 13 to 15 d
# Procedure, shortened: as §2
# [10] = tested on: sedge, umbrella (small-flower umbrella sedge, Cyperus difformis); test: Test B flooded paddy test, visual rating; conditions: Flood, 250 g ai/ha, applied to paddy water, rated after 13 to 15 d
# Procedure, shortened: as §2
# [11] = tested on: barnyardgrass (Echinochloa crus-galli); test: Test A postemergence application, visual injury rating; conditions: 0 to 100 scale, 0 no effect, 100 complete control
# Procedure, shortened: as §1
# [12] = tested on: blackgrass (Alopecurus myosuroides); test: as above; conditions: 0 to 100 scale, 0 no effect, 100 complete control
# Procedure, shortened: as §1
# [13] = tested on: corn (Zea mays); test: as above; conditions: for Corn plant response rating: 0 to 100 scale, 0 no effect, 100 complete control
# Procedure, shortened: as §1
# [14] = tested on: foxtail, giant (giant foxtail, Setaria faberii); test: as above; conditions: for Foxtail, Giant plant response rating: 0 to 100 scale, 0 no effect, 100 complete control
# Procedure, shortened: as §1
# [15] = tested on: galium (catchweed bedstraw, Galium aparine); test: as above; conditions: for Galium plant response rating: 0 to 100 scale, 0 no effect, 100 complete control
# Procedure, shortened: as §1
# [16] = tested on: kochia (Kochia scoparia); test: as above; conditions: for Kochia plant response rating: 0 to 100 scale, 0 no effect, 100 complete control
# Procedure, shortened: as §1
# [17] = tested on: pigweed (Amaranthus retroflexus); test: as above; conditions: for Pigweed plant response rating: 0 to 100 scale, 0 no effect, 100 complete control
# Procedure, shortened: as §1
# [18] = tested on: ragweed (common ragweed, Ambrosia elatior); test: as above; conditions: for Ragweed plant response rating: 0 to 100 scale, 0 no effect, 100 complete control
# Procedure, shortened: as §1
# [19] = tested on: ryegrass, It. (Italian ryegrass, Lolium multiflorum); test: as above; conditions: for Ryegrass, It. plant response rating: 0 to 100 scale, 0 no effect, 100 complete control
# Procedure, shortened: as §1
# [20] = tested on: wheat (Triticum aestivum); test: as above; conditions: for Wheat plant response rating: 0 to 100 scale, 0 no effect, 100 complete control
# Procedure, shortened: as §1
# [21] = 31 g ai/ha, 0 is no effect, 100 is complete control
Compound,"Plant response rating (0 to 100 scale), Barnyardgrass ([1]; 125 g ai/ha)","Plant response rating (0 to 100 scale), Foxtail, Giant ([2]; 125 g ai/ha)","Plant response rating (0 to 100 scale), Kochia ([3]; 125 g ai/ha)","Plant response rating (0 to 100 scale), Pigweed ([4]; 125 g ai/ha)","Plant response rating (0 to 100 scale), Ragweed ([5]; 125 g ai/ha)","Plant response rating (0 to 100 scale), Ryegrass, It. ([6]; 125 g ai/ha)","Barnyardgrass plant response rating (0 to 100 scale, 0 is no effect, 100 is complete control) [7]","Ducksalad plant response rating (0 to 100 scale, 0 is no effect, 100 is complete control) [8]","Rice plant response rating (0 to 100 scale, 0 is no effect, 100 is complete control) [9]","Sedge, Umbrella plant response rating (0 to 100 scale, 0 is no effect, 100 is complete control) [10]",Barnyardgrass plant response rating ([11]; 125 g ai/ha),Blackgrass plant response rating ([12]; 125 g ai/ha),Corn plant response rating ([13]; 125 g ai/ha),"Foxtail, Giant plant response rating ([14]; 125 g ai/ha)",Galium plant response rating ([15]; 125 g ai/ha),Kochia plant response rating ([16]; 125 g ai/ha),Pigweed plant response rating ([17]; 125 g ai/ha),Ragweed plant response rating ([18]; 125 g ai/ha),"Ryegrass, It. plant response rating ([19]; 125 g ai/ha)",Wheat plant response rating ([20]; 125 g ai/ha),further results
Cc1ccc2ccoc2c1-c1c(O)c(C)nn(C)c1=O [Compound 7],10,20,30,100,40,100,0,0,0,0,30,80,0,80,100,100,90,90,100,20,"Plant response rating (0 to 100 scale), Barnyardgrass ([1]; 500 g ai/ha): 90; Plant response rating (0 to 100 scale), Foxtail, Giant ([2]; 500 g ai/ha): 90; Plant response rating (0 to 100 scale), Kochia ([3]; 500 g ai/ha): 90; Plant response rating (0 to 100 scale), Pigweed ([4]; 500 g ai/ha): 100; Plant response rating (0 to 100 scale), Ragweed ([5]; 500 g ai/ha): 90; Plant response rating (0 to 100 scale), Ryegrass, It. ([6]; 500 g ai/ha): 100; Barnyardgrass plant response rating ([11]; 500 g ai/ha): 80; Blackgrass plant response rating ([12]; 500 g ai/ha): 90; Corn plant response rating ([13]; 500 g ai/ha): 60; Foxtail, Giant plant response rating ([14]; 500 g ai/ha): 90; Galium plant response rating ([15]; 500 g ai/ha): 100; Kochia plant response rating ([16]; 500 g ai/ha): 100; Pigweed plant response rating ([17]; 500 g ai/ha): 90; Ragweed plant response rating ([18]; 500 g ai/ha): 90; Ryegrass, It. plant response rating ([19]; 500 g ai/ha): 100; Wheat plant response rating ([20]; 500 g ai/ha): 70"
Cc1cc2c(-c3c(O)c(C)nn(C)c3=O)c(C)ccc2s1 [Compound 72],30,40,40,70,90,100,0,0,0,0,40,80,0,60,100,90,90,90,100,0,"Plant response rating (0 to 100 scale), Barnyardgrass ([1]; 31 g ai/ha): 0; Plant response rating (0 to 100 scale), Foxtail, Giant ([2]; 31 g ai/ha): 0; Plant response rating (0 to 100 scale), Kochia ([3]; 31 g ai/ha): 0; Plant response rating (0 to 100 scale), Pigweed ([4]; 31 g ai/ha): 70; Plant response rating (0 to 100 scale), Ragweed ([5]; 31 g ai/ha): 70; Plant response rating (0 to 100 scale), Ryegrass, It. ([6]; 31 g ai/ha): 90; Barnyardgrass plant response rating ([11]; 31 g ai/ha): 30; Blackgrass plant response rating ([12]; 31 g ai/ha): 40; Plant response rating (0 to 100 scale), Corn [13, 21]: 0; Plant response rating (0 to 100 scale), Foxtail, Giant [14, 21]: 30; Plant response rating (0 to 100 scale), Galium [15, 21]: 90; Plant response rating (0 to 100 scale), Kochia [16, 21]: 70; Plant response rating (0 to 100 scale), Pigweed [17, 21]: 90; Plant response rating (0 to 100 scale), Ragweed [18, 21]: 70; Plant response rating (0 to 100 scale), Ryegrass, It. [19, 21]: 90; Plant response rating (0 to 100 scale), Wheat [20, 21]: 0"
Cc1nn(C)c(=O)c(-c2c(C)sc3ncccc23)c1OC(=O)OC(C)C [Compound 15],0,0,0,0,0,0,0,0,0,0,0,0,0,0,0,0,0,0,0,0,"Plant response rating (0 to 100 scale), Barnyardgrass ([1]; 500 g ai/ha): 0; Plant response rating (0 to 100 scale), Foxtail, Giant ([2]; 500 g ai/ha): 0; Plant response rating (0 to 100 scale), Kochia ([3]; 500 g ai/ha): 0; Plant response rating (0 to 100 scale), Pigweed ([4]; 500 g ai/ha): 0; Plant response rating (0 to 100 scale), Ragweed ([5]; 500 g ai/ha): 0; Plant response rating (0 to 100 scale), Ryegrass, It. ([6]; 500 g ai/ha): 0; Barnyardgrass plant response rating ([11]; 500 g ai/ha): 0; Blackgrass plant response rating ([12]; 500 g ai/ha): 0; Corn plant response rating ([13]; 500 g ai/ha): 0; Foxtail, Giant plant response rating ([14]; 500 g ai/ha): 0; Galium plant response rating ([15]; 500 g ai/ha): 0; Kochia plant response rating ([16]; 500 g ai/ha): 0; Pigweed plant response rating ([17]; 500 g ai/ha): 0; Ragweed plant response rating ([18]; 500 g ai/ha): 0; Ryegrass, It. plant response rating ([19]; 500 g ai/ha): 0; Wheat plant response rating ([20]; 500 g ai/ha): 0"
CCc1sc2ncccc2c1-c1c(OC(=O)C2CC2)c(C)nn(C)c1=O [Compound 21],0,0,0,0,0,0,0,0,0,0,0,0,0,0,10,0,10,0,0,0,"Plant response rating (0 to 100 scale), Barnyardgrass ([1]; 500 g ai/ha): 0; Plant response rating (0 to 100 scale), Foxtail, Giant ([2]; 500 g ai/ha): 0; Plant response rating (0 to 100 scale), Kochia ([3]; 500 g ai/ha): 0; Plant response rating (0 to 100 scale), Pigweed ([4]; 500 g ai/ha): 0; Plant response rating (0 to 100 scale), Ragweed ([5]; 500 g ai/ha): 0; Plant response rating (0 to 100 scale), Ryegrass, It. ([6]; 500 g ai/ha): 0; Barnyardgrass plant response rating ([11]; 500 g ai/ha): 0; Blackgrass plant response rating ([12]; 500 g ai/ha): 0; Corn plant response rating ([13]; 500 g ai/ha): 0; Foxtail, Giant plant response rating ([14]; 500 g ai/ha): 0; Galium plant response rating ([15]; 500 g ai/ha): 20; Kochia plant response rating ([16]; 500 g ai/ha): 0; Pigweed plant response rating ([17]; 500 g ai/ha): 30; Ragweed plant response rating ([18]; 500 g ai/ha): 0; Ryegrass, It. plant response rating ([19]; 500 g ai/ha): 0; Wheat plant response rating ([20]; 500 g ai/ha): 0"
Cn1nc(Cl)c(O)c(-c2cccc3[nH]nnc23)c1=O [Compound 38],0,0,0,0,0,0,0,0,0,0,0,0,0,0,0,0,0,0,0,0,"Plant response rating (0 to 100 scale), Barnyardgrass ([1]; 31 g ai/ha): 0; Plant response rating (0 to 100 scale), Foxtail, Giant ([2]; 31 g ai/ha): 0; Plant response rating (0 to 100 scale), Kochia ([3]; 31 g ai/ha): 0; Plant response rating (0 to 100 scale), Pigweed ([4]; 31 g ai/ha): 0; Plant response rating (0 to 100 scale), Ragweed ([5]; 31 g ai/ha): 0; Plant response rating (0 to 100 scale), Ryegrass, It. ([6]; 31 g ai/ha): 0; Barnyardgrass plant response rating ([11]; 31 g ai/ha): 0; Blackgrass plant response rating ([12]; 31 g ai/ha): 0; Corn plant response rating ([13]; 31 g ai/ha): 0; Foxtail, Giant plant response rating ([14]; 31 g ai/ha): 0; Galium plant response rating ([15]; 31 g ai/ha): 0; Kochia plant response rating ([16]; 31 g ai/ha): 0; Pigweed plant response rating ([17]; 31 g ai/ha): 0; Ragweed plant response rating ([18]; 31 g ai/ha): 0; Ryegrass, It. plant response rating ([19]; 31 g ai/ha): 0; Wheat plant response rating ([20]; 31 g ai/ha): 0"

# From US10750743B2, “Pyridazinone herbicides” (E.I. DU PONT DE NEMOURS AND COMPANY, priority 2015, dated 2020)
